How the values were obtained:
M. tuberculosis H37Rv [1] = assay type: cell-based, Mycobacterium tuberculosis; conditions: hypoxic shift down M. tuberculosis H37Rv, result in words
M. tuberculosis H37Rv [2] = assay type: cell-based, Mycobacterium tuberculosis; conditions: hypoxic shift down M. tuberculosis, 5 days treatment, result in words
M. bovis BCGMtbNar = assay type: cell-based, Mycobacterium bovis BCG

`O=[N+]([O-])c1cn2c(n1)OC[C@@H](OCc1ccc(OC(F)(F)F)cc1)C2` [PA-824] was tested, and the “effect on ATP levels” value (M. tuberculosis H37Rv [1]) was “reduction in ATP levels” and the “bacterial viability (CFU)” value (M. tuberculosis H37Rv [2]) was “reduction in bacterial viability”.
With `COc1nc2ccc(Br)cc2cc1[C@@H](c1ccccc1)[C@@](O)(CCN(C)C)c1cccc2ccccc12` [TMC207] the “effect on ATP pool / intracellular ATP levels” value (M. bovis BCGMtbNar) was “significantly reduce the ATP pool”, the “effect on ATP levels” value (M. tuberculosis H37Rv [1]) was “reduction in ATP levels” and the “bacterial viability (CFU)” value (M. tuberculosis H37Rv [2]) was “reduction in bacterial viability”.
With `Cc1ncc([N+](=O)[O-])n1CCO` [metronidazole] the “effect on ATP pool / intracellular ATP levels” value (M. bovis BCGMtbNar) was “not affected”.
